Measured values: PMC12090182, “Repurposing of the RIPK1-Selective Benzo[1,4]oxazepin-4-one Scaffold for the Development of a Type III LIMK1/2 Inhibitor” (ACS Chemical Biology, 2025)

How the values were obtained:
Experiment in all cases: biochemical
Format in all cases: binding
[1] = biological target: 468 kinases including some pathogenic mutants (Homo sapiens, UniProt P23443); details: S6K1 (Entrez RPS6KB1), 1000 nM; read-out: Percent Control
[2] = biological target: 468 kinases including some pathogenic mutants (Homo sapiens, UniProt Q99755); details: PIP5K1A (Entrez PIP5K1A), 100 nM; read-out: Percent Control
[3] = biological target: 468 kinases including some pathogenic mutants (Homo sapiens, UniProt P28482); details: ERK2 (Entrez MAPK1), 100 nM; read-out: Percent Control
[4] = biological target: 468 kinases including some pathogenic mutants (Homo sapiens, UniProt P10721, V559D/V654A); details: read-out: Percent Control
Sequence of 468 kinases including some pathogenic mutants (Homo sapiens, UniProt P10721, V559D/V654A) (P10721 26-976 V559D/V654A): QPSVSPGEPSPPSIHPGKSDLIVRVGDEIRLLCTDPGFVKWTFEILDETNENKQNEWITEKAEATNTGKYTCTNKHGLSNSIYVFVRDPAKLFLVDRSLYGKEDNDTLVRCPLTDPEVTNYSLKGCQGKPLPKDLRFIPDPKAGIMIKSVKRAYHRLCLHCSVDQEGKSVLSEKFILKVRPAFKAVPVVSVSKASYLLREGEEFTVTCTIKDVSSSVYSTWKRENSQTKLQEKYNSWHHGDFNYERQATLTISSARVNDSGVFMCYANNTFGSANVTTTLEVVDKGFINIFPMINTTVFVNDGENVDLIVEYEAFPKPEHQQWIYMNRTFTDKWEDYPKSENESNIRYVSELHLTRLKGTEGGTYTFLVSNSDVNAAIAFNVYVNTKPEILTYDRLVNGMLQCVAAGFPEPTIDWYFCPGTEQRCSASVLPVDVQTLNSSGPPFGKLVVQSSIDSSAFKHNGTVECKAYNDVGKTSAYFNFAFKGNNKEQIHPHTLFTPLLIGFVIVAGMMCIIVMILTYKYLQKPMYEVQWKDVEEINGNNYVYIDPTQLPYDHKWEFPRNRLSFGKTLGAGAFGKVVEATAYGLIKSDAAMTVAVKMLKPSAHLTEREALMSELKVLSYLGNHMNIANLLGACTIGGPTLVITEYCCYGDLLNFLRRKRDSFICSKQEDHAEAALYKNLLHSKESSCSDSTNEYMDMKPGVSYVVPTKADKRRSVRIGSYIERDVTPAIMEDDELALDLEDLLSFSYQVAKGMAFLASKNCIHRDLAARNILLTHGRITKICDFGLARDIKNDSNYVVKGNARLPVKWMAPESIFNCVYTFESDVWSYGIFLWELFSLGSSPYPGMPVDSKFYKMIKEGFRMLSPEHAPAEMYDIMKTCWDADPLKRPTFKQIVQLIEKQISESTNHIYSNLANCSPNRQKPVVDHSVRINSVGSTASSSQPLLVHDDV

[5] = biological target: 468 kinases including some pathogenic mutants (Homo sapiens, UniProt Q9UHD2); details: TBK1 (Entrez TBK1), 100 nM; read-out: Percent Control
Sequence of 468 kinases including some pathogenic mutants (Homo sapiens, UniProt Q9UHD2) (Q9UHD2 whole entry, change not shown): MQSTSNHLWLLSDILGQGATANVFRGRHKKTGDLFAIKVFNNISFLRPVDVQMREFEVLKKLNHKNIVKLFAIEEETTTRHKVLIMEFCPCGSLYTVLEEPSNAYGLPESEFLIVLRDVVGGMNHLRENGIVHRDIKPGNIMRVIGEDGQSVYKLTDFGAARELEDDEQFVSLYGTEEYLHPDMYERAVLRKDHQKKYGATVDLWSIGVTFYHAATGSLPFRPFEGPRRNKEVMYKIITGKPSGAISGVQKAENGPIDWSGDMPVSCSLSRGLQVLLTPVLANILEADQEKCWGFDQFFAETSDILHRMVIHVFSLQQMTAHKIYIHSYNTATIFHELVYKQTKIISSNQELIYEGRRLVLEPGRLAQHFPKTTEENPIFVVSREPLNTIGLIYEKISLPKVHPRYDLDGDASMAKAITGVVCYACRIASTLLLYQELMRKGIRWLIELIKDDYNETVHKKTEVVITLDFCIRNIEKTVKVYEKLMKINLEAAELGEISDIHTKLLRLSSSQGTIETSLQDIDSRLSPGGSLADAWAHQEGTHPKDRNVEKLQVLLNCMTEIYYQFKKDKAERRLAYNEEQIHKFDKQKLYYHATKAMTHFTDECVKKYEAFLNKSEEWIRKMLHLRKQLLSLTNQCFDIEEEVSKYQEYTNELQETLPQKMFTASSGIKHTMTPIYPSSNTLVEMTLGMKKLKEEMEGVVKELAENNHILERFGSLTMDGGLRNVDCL

[6] = biological target: 468 kinases including some pathogenic mutants (Homo sapiens, UniProt P43403); details: ZAP70 (Entrez ZAP70), 1000 nM; read-out: Percent Control
[7] = biological target: 468 kinases including some pathogenic mutants (Homo sapiens, UniProt P06241); details: FYN (Entrez FYN), 100 nM; read-out: Percent Control
[8] = biological target: 468 kinases including some pathogenic mutants (Homo sapiens, UniProt P53779); details: JNK3 (Entrez MAPK10), 100 nM; read-out: Percent Control
[9] = biological target: 468 kinases including some pathogenic mutants (Homo sapiens, UniProt Q13163); details: MEK5 (Entrez MAP2K5), 100 nM; read-out: Percent Control
[10] = biological target: 468 kinases including some pathogenic mutants (Homo sapiens, UniProt P00533, L861Q); details: read-out: Percent Control
[11] = biological target: 468 kinases including some pathogenic mutants (Homo sapiens, UniProt Q15759); details: p38-beta (Entrez MAPK11), 100 nM; read-out: Percent Control
Sequence of 468 kinases including some pathogenic mutants (Homo sapiens, UniProt Q15759) (Q15759 whole entry, change not shown): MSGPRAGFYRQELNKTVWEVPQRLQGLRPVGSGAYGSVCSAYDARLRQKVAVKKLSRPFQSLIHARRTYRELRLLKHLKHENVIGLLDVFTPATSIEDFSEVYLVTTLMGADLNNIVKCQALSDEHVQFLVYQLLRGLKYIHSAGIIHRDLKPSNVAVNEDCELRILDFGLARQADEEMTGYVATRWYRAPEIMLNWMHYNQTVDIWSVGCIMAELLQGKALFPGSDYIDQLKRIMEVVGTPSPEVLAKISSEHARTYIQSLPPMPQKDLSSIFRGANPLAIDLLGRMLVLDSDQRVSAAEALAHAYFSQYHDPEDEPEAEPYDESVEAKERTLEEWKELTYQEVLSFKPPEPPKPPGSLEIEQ

[12] = biological target: 468 kinases including some pathogenic mutants (Homo sapiens, UniProt P36896); details: ACVR1B (Entrez ACVR1B), 100 nM; read-out: Percent Control
Sequence of 468 kinases including some pathogenic mutants (Homo sapiens, UniProt P36896) (P36896 24-505, stated change not applied): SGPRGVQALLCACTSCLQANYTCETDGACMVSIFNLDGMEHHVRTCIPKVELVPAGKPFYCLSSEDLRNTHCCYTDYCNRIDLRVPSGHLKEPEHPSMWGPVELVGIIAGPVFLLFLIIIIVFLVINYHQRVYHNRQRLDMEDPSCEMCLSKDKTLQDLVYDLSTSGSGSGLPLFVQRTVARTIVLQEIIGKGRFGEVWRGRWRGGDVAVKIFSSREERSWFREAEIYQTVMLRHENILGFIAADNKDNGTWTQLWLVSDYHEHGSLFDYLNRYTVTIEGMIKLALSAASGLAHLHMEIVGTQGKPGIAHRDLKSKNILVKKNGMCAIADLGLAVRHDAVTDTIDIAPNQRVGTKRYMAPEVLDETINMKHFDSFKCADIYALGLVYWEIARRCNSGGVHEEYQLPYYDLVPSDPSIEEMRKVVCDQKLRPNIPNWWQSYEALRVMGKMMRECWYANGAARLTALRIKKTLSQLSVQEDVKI

[13] = biological target: 468 kinases including some pathogenic mutants (Homo sapiens, UniProt P00533, DEL752-759); details: read-out: Percent Control
[14] = biological target: 468 kinases including some pathogenic mutants (Homo sapiens, UniProt Q9H2G2); details: SLK (Entrez SLK), 100 nM; read-out: Percent Control
[15] = biological target: 468 kinases including some pathogenic mutants (Homo sapiens, UniProt Q13555); details: CAMK2G (Entrez CAMK2G), 100 nM; read-out: Percent Control
[16] = biological target: 468 kinases including some pathogenic mutants (Homo sapiens, UniProt Q02156); details: PRKCE (Entrez PRKCE), 1000 nM; read-out: Percent Control
[17] = biological target: 468 kinases including some pathogenic mutants (Homo sapiens, UniProt O15264); details: p38-delta (Entrez MAPK13), 1000 nM; read-out: Percent Control
[18] = biological target: 468 kinases including some pathogenic mutants (Homo sapiens, UniProt Q86V86); details: PIM3 (Entrez PIM3), 100 nM; read-out: Percent Control
[19] = biological target: 468 kinases including some pathogenic mutants (Homo sapiens, UniProt Q9H4B4); details: PLK3 (Entrez PLK3), 1000 nM; read-out: Percent Control
[20] = biological target: 468 kinases including some pathogenic mutants (Homo sapiens, UniProt P16234); details: PDGFRA (Entrez PDGFRA), 100 nM; read-out: Percent Control
[21] = biological target: 468 kinases including some pathogenic mutants (Homo sapiens, UniProt Q9UKE5); details: TNIK (Entrez TNIK), 100 nM; read-out: Percent Control
[22] = biological target: 468 kinases including some pathogenic mutants (Homo sapiens, UniProt Q14164); details: IKK-epsilon (Entrez IKBKE), 100 nM; read-out: Percent Control
[23] = biological target: 468 kinases including some pathogenic mutants (Homo sapiens, UniProt O43353); details: RIPK2 (Entrez RIPK2), 100 nM; read-out: Percent Control
[24] = biological target: 468 kinases including some pathogenic mutants (Homo sapiens, UniProt Q9UF33); details: EPHA6 (Entrez EPHA6), 100 nM; read-out: Percent Control
[25] = biological target: 468 kinases including some pathogenic mutants (Homo sapiens, UniProt P43405); details: SYK (Entrez SYK), 100 nM; read-out: Percent Control
[26] = biological target: 468 kinases including some pathogenic mutants (Homo sapiens, UniProt Q8NFD2); details: ANKK1 (Entrez ANKK1), 100 nM; read-out: Percent Control
Sequence of 468 kinases including some pathogenic mutants (Homo sapiens, UniProt Q8NFD2) (Q8NFD2 whole entry, change not shown): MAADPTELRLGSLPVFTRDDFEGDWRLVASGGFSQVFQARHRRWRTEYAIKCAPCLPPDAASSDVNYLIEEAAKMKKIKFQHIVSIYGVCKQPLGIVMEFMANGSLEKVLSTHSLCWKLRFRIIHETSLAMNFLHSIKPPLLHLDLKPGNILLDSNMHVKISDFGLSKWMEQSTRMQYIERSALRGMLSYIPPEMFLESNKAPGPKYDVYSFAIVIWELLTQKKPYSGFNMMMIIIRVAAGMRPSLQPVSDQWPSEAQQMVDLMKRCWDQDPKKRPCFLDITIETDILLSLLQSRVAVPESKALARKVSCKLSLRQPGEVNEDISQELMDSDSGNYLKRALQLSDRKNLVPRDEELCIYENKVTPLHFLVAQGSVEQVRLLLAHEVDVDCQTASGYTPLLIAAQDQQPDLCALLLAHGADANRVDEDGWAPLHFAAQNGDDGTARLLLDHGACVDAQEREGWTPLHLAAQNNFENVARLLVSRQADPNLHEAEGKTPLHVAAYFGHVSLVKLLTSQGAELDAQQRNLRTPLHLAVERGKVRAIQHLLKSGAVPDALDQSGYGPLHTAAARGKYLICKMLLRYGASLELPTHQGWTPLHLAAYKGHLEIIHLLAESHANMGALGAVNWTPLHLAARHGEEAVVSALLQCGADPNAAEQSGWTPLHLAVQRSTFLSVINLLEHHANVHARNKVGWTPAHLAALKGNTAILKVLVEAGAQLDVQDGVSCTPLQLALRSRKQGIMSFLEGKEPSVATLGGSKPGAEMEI

[27] = biological target: 468 kinases including some pathogenic mutants (Homo sapiens, UniProt P42679); details: CTK (Entrez MATK), 100 nM; read-out: Percent Control
[28] = biological target: 468 kinases including some pathogenic mutants (Homo sapiens, UniProt Q9Y5S2); details: MRCKB (Entrez CDC42BPB), 1000 nM; read-out: Percent Control
Sequence of 468 kinases including some pathogenic mutants (Homo sapiens, UniProt Q9Y5S2) (Q9Y5S2 whole entry, change not shown): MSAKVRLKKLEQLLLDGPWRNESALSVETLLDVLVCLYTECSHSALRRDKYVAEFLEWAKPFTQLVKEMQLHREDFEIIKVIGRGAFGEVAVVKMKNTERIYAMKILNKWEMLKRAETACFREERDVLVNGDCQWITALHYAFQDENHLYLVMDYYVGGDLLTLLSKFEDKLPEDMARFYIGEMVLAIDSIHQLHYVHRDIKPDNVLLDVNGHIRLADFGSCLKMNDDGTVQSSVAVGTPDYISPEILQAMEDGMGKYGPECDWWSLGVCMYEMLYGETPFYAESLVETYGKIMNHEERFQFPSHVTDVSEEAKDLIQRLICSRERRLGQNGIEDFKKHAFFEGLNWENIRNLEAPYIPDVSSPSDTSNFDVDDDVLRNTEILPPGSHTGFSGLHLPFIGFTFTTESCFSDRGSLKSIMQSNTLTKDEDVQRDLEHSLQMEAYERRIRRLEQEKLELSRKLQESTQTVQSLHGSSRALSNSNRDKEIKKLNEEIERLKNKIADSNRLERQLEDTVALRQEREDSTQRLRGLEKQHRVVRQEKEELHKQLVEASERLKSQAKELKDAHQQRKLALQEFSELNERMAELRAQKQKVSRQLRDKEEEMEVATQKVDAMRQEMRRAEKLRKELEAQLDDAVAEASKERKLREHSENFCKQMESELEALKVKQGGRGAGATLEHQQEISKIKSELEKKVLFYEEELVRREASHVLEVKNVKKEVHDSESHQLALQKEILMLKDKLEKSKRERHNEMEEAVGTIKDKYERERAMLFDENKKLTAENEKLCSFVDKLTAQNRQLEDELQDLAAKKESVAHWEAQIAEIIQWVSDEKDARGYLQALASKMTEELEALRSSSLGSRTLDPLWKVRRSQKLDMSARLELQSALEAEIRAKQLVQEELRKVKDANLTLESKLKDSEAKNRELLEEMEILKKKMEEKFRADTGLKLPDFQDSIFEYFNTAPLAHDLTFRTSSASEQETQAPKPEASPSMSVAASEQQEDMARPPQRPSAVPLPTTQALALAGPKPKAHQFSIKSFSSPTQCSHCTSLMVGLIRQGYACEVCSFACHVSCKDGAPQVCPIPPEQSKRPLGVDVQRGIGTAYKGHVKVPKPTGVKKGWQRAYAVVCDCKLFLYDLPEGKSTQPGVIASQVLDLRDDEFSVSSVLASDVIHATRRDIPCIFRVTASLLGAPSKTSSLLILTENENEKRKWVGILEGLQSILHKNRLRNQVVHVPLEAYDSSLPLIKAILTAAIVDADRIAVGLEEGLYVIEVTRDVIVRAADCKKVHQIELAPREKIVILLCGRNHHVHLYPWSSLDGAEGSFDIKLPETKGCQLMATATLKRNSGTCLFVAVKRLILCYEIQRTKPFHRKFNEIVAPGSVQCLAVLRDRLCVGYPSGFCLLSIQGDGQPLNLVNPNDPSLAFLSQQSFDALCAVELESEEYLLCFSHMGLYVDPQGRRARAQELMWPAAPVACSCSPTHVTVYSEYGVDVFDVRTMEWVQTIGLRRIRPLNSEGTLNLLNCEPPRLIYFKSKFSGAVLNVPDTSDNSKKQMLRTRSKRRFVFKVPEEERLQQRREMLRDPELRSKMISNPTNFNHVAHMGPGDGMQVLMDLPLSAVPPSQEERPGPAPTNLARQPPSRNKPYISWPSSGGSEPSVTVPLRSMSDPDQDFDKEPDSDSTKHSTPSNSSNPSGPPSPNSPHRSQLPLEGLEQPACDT

[29] = biological target: 468 kinases including some pathogenic mutants (Homo sapiens, UniProt P53355); details: DAPK1 (Entrez DAPK1), 100 nM; read-out: Percent Control

## CN1C(=O)[C@@H](N2CCc3c(nn(Cc4ccccc4)c3C(N)=O)C2=O)COc2cc(Cl)ccc21 [Compound 10, (S)-2-benzyl-6-(8-chloro-5-methyl-4-oxo-2,3,4,5-tetrahydrobenzo[b][1,4]oxazepin-3-yl)-7-oxo-4,5,6,7-tetrahydro-2H-pyrazolo[3,4-c]pyridine-3-carboxamide]
[1]
  remaining activity at 1 µM: 100%
[2]
  remaining activity at 0.1 µM: 100%
[3]
  remaining activity at 0.1 µM: 77%
[4]
  remaining activity at 0.1 µM: 82%
[5]
  remaining activity at 0.1 µM: 89%
[6]
  remaining activity at 1 µM: 100%
[7]
  remaining activity at 0.1 µM: 71%
[8]
  remaining activity at 0.1 µM: 77%
[9]
  remaining activity at 0.1 µM: 89%
[10]
  remaining activity at 0.1 µM: 100%
[11]
  remaining activity at 0.1 µM: 100%
[12]
  remaining activity at 0.1 µM: 89%
[13]
  remaining activity at 0.1 µM: 100%
[14]
  remaining activity at 0.1 µM: 89%
[15]
  remaining activity at 0.1 µM: 78%
[16]
  remaining activity at 1 µM: 100%
[17]
  remaining activity at 1 µM: 100%
[18]
  remaining activity at 0.1 µM: 87%
[19]
  remaining activity at 1 µM: 100%
[20]
  remaining activity at 0.1 µM: 89%
[21]
  remaining activity at 0.1 µM: 100%
[22]
  remaining activity at 0.1 µM: 61%
[23]
  remaining activity at 0.1 µM: 87%
[24]
  remaining activity at 0.1 µM: 66%
[25]
  remaining activity at 0.1 µM: 100%
[26]
  remaining activity at 0.1 µM: 77%
[27]
  remaining activity at 0.1 µM: 100%
[28]
  remaining activity at 1 µM: 100%
[29]
  remaining activity at 0.1 µM: 93%
